This is an account of results in patent US11331290B2, “Niclosamide for the treatment of cancer metastasis” (Max-Delbrück-Centrum für Molekulare Medizin in der …, priority 2011, dated 2022).

In this assay the test system is S100A4 promoter. Briefly: High-throughput screening, S100A4 promoter-driven luciferase reporter. In kind it is cell-based, human. The settings on record: HCT116-S100A4p-LUC cells, 20-concentration rescreen, 2-fold dilutions from 100 μM, 24 h. Here is the method:
HCT116-S100A4p-LUC colon cancer cells stably expressing a human S100A4 promoter-driven luciferase reporter gene construct were screened with the Library of Pharmacologically Active Compounds (LOPAC; FIG. 1, A). The LOPAC Library represents a collection of 1280 well characterized small molecule inhibitors. […] In parallel, cell viability was determined using the Alamar blue assay to evaluate whether some of the inhibitory effects were caused by cytotoxicity (data not shown). […]
For high-throughput screening 2.5×10^3 cells per well of HCT116-S100A4p-LUC cells were seeded into white opaque 384-well plates (Perkin Elmer, Waltham, Mass.) using the BIOMEK 2000 automatic pipetting system (Beckman Coulter, Brea, Calif.). […] Following compound treatment, luciferase expression was determined using Britelite reagent (Perkin Elmer) in a Wallac Victor reader (Perkin Elmer). In parallel, cytotoxicity of the compounds was measured in clear polystyrene 384-well plates (Costar) by Alamar blue cytotoxicity assay (Sigma-Aldrich). […] Plates were then read on a Wallac Victor reader at an excitation wavelength of 530 nm and emission wavelength of 590 nm. For both luminescence and Alamar blue fluorescence data, eight vehicle control wells were averaged and test compound results (single well) expressed as percent of control. […]
For orientation: Reporter assays use an easily measured gene product as a stand-in for the process of interest.

Take `O=C(Nc1ccc([N+](=O)[O-])cc1Cl)c1cc(Cl)ccc1O` [niclosamide, 2′,5-dichloro-4′-nitrosalicylanilide]: the “inhibition of reporter gene expression” value is listed as “strongest candidate”.
